Source: ChEMBL document CHEMBL3046319, “PCR-RFLP detection of the E198A mutation conferring resistance to benzimidazoles in field isolates of Monilinia laxa from Greece” (Crop Prot, 2012)
≈ marks a conversion by molar mass, not a printed value. Calls of active or inactive are those of the source. The rule behind the calls is not given here.

Key:
Monilinia laxa [1] = assay: Fungicidal activity against Monilinia laxa isolate MLK24 assessed as reduction in mycelial growth rate at 1 to 10 ug/ml at 31 degC after 5 days; format: functional, organism-based
Monilinia laxa [2] = assay: Fungicidal activity against Monilinia laxa isolate MLK1 assessed as reduction in mycelial growth rate at 1 to 10 ug/ml at 31 degC after 5 days; format: functional, organism-based
Monilinia laxa [3] = assay: Fungicidal activity against Monilinia laxa isolate MLG2 assessed as reduction in mycelial growth rate at 1 to 10 ug/ml at 31 degC after 5 days; format: functional, organism-based
Monilinia laxa [4] = assay: Fungicidal activity against Monilinia laxa isolate MLC1 assessed as reduction in mycelial growth rate at 1 to 10 ug/ml at 31 degC after 5 days; format: functional, organism-based
Monilinia laxa [5] = assay: Fungicidal activity against Monilinia laxa isolate MLP4 assessed as mean number of conidia produced in the colony at 25 degC after 12 days by haemocytometer; format: functional
Monilinia laxa [6] = assay: Fungicidal activity against Monilinia laxa isolate MLA1 assessed as mean number of conidia produced in the colony at 25 degC after 12 days by haemocytometer; format: functional
Monilinia laxa [7] = assay: Fungicidal activity against Monilinia laxa isolate MLX1 assessed as mean mycelial colony diameter at 25 degC after 4 days; format: functional
Monilinia laxa [8] = assay: Fungicidal activity against Monilinia laxa isolate MLP4 assessed as mean mycelial colony diameter at 25 degC after 4 days; format: functional
Monilinia laxa [9] = assay: Fungicidal activity against Monilinia laxa isolate MLK6 assessed as reduction in mycelial growth rate at 1 to 10 ug/ml at 28 degC after 8 days; format: functional, organism-based
Monilinia laxa [10] = assay: Fungicidal activity against Monilinia laxa isolate MLG5 assessed as reduction in mycelial growth rate at 25 degC after 4 days; format: functional, organism-based; conditions: isolate MLG5, 96 h
Monilinia laxa [11] = assay: Fungicidal activity against Monilinia laxa isolate MLBO4 assessed as reduction in mycelial growth rate at 25 degC after 4 days; format: functional, organism-based; conditions: isolate MLBO4, 96 h
Monilinia laxa [12] = assay: Fungicidal activity against Monilinia laxa isolate MLP7 assessed as reduction in mycelial growth rate at 1 to 10 ug/ml at 25 to 28 degC; format: functional, organism-based
Monilinia laxa [13] = assay: Fungicidal activity against Monilinia laxa isolate MLK4 assessed as reduction in mycelial growth rate at 1 to 10 ug/ml at 25 to 28 degC; format: functional, organism-based
Monilinia laxa [14] = assay: Fungicidal activity against Monilinia laxa isolate MLBO2 assessed as mycelial growth at 1 ug/ml at 25 degC after 4 days; format: functional
Monilinia laxa [15] = assay: Fungicidal activity against Monilinia laxa isolate MLX5 assessed as mycelial growth at 1 ug/ml at 25 degC after 4 days; format: functional
Monilinia laxa [16] = assay: Fungicidal activity against Monilinia laxa isolate MLX5 assessed as virulence in prune fruits assessed as virulence treated 10 min prior to mycelial inoculation at 24 degC after 10 days relative to isolate MLX1by pathogenicity bioassay; format: functional
Monilinia laxa [17] = assay: Fungicidal activity against Monilinia laxa isolate MLBO2 assessed as reduction in mycelial growth rate at 1 to 10 ug/ml at 31 degC after 5 days; format: functional, organism-based
Monilinia laxa [18] = assay: Fungicidal activity against Monilinia laxa isolate B1 assessed as reduction in mycelial growth rate at 1 to 10 ug/ml at 31 degC after 5 days; format: functional, organism-based
Monilinia laxa [19] = assay: Fungicidal activity against Monilinia laxa isolate MLX4 assessed as reduction in mycelial growth rate at 1 to 10 ug/ml at 31 degC after 5 days; format: functional, organism-based
Monilinia laxa [20] = assay: Fungicidal activity against Monilinia laxa isolate MLX1 assessed as reduction in mycelial growth rate at 1 to 10 ug/ml at 31 degC after 5 days; format: functional, organism-based
Monilinia laxa [21] = assay: Fungicidal activity against Monilinia laxa isolate MLX4 assessed as reduction in mycelial growth rate at 25 degC after 4 days; format: functional, organism-based; conditions: isolate MLX4, 96 h
Monilinia laxa [22] = assay: Fungicidal activity against Monilinia laxa isolate MLP7 assessed as reduction in mycelial growth rate at 25 degC after 4 days; format: functional, organism-based; conditions: isolate MLP7, 96 h

COC(=O)Nc1nc2ccccc2[nH]1 [CARBENDAZIM]
inhibition (Monilinia laxa [1]): Active
inhibition (Monilinia laxa [2]): Active
inhibition (Monilinia laxa [3]): Active
inhibition (Monilinia laxa [4]): Active
Activity (Monilinia laxa [5]): 3.98 /cm2
Activity (Monilinia laxa [6]): 5 /cm2
Activity (Monilinia laxa [7]): 31.25 mm
Activity (Monilinia laxa [8]): 32.5 mm
inhibition (Monilinia laxa [9]): inactive
EC50 (Monilinia laxa [10]): 0.09 µg/mL (≈ 0.471 µM)
EC50 (Monilinia laxa [11]): 0.05 µg/mL (≈ 0.262 µM)
inhibition (Monilinia laxa [12]): inactive
inhibition (Monilinia laxa [13]): inactive
Activity (Monilinia laxa [14]): 0%
Activity (Monilinia laxa [15]): 0%
Activity (Monilinia laxa [16]): 96.29%
inhibition (Monilinia laxa [17]): Active
inhibition (Monilinia laxa [18]): Active
inhibition (Monilinia laxa [19]): Active
inhibition (Monilinia laxa [20]): Active
EC50 (Monilinia laxa [21]): 0.11 µg/mL (≈ 0.575 µM)
EC50 (Monilinia laxa [22]): > 50 µg/mL
